These results are taken from ChEMBL document CHEMBL5131567, “3,5,7-Substituted Pyrazolo[4,3-d]Pyrimidine Inhibitors of Cyclin-Dependent Kinases and Cyclin K Degraders” (J Med Chem, 2022).

Molecules are shown by their SMILES. The source made the active and inactive calls. No cut-off for these calls is given here.

Test [1] in a line: Antiproliferative activity against human MINO cells assessed as cell growth inhibition measured after 72 hrs by resazurin dye based microplate reader analysis. Type of test: functional.
Test [2] in a line: Antiproliferative activity against human UPF1H cells assessed as cell growth inhibition measured after 72 hrs by resazurin dye based microplate reader analysis. Type of test: functional.
Test [3] concerns NU-DUL-1. Put plainly: Antiproliferative activity against human NU-DUL-1 cells assessed as cell growth inhibition measured after 72 hrs by resazurin dye based microplate reader analysis. The test is classed as functional.
In test [4] the test system is DB. Put plainly: Antiproliferative activity against human DB cells assessed as cell growth inhibition measured after 72 hrs by resazurin dye based microplate reader analysis. The test is classed as functional.
The nature of test [5]: Antiproliferative activity against human OCI-Ly2 cells assessed as cell growth inhibition measured after 72 hrs by resazurin dye based microplate reader analysis. Type of test: functional.
For test [6], the system named is OCI-LY19. Description: Antiproliferative activity against human OCILY19 cells assessed as cell growth inhibition measured after 72 hrs by resazurin dye based microplate reader analysis. Type of test: functional.
Test [7] concerns U2932. Put plainly: Antiproliferative activity against human U2932 cells assessed as cell growth inhibition measured after 72 hrs by resazurin dye based microplate reader analysis. Type of test: functional.
Test [8] has as its system SUD4. Description: Antiproliferative activity against human SU-DHL-4 cells assessed as cell growth inhibition measured after 72 hrs by resazurin dye based microplate reader analysis. Type of test: functional.
The nature of test [9]: Antiproliferative activity against human Ri-1 cells assessed as cell growth inhibition measured after 72 hrs by resazurin dye based microplate reader analysis. Type of test: functional.
The target of test [10] is Cyclin-dependent kinase 2/G1/S-specific cyclin-D1 (Homo sapiens, UniProt P24385+P24941). The test is classed as cell-based, Sf9.
The nature of test [11]: Inhibition of GST-tagged human CDK5/p25 expressed in Sf9 cells using histone H1 as substrate in presence of ATP and [gamma33-P] ATP by radioisotope filter binding assay.
In test [12] the target is CDK9/cyclin T1 (Homo sapiens, UniProt P50750). Description: Inhibition of GST-tagged human CDK9/Cyclin T1 expressed in Sf9 cells using (YSPTSPS)2KK peptide as substrate in presence of ATP and [gamma33-P] ATP by radioisotope filter binding assay. The test is classed as cell-based.
Chain of CDK9/cyclin T1 (O60563 whole entry): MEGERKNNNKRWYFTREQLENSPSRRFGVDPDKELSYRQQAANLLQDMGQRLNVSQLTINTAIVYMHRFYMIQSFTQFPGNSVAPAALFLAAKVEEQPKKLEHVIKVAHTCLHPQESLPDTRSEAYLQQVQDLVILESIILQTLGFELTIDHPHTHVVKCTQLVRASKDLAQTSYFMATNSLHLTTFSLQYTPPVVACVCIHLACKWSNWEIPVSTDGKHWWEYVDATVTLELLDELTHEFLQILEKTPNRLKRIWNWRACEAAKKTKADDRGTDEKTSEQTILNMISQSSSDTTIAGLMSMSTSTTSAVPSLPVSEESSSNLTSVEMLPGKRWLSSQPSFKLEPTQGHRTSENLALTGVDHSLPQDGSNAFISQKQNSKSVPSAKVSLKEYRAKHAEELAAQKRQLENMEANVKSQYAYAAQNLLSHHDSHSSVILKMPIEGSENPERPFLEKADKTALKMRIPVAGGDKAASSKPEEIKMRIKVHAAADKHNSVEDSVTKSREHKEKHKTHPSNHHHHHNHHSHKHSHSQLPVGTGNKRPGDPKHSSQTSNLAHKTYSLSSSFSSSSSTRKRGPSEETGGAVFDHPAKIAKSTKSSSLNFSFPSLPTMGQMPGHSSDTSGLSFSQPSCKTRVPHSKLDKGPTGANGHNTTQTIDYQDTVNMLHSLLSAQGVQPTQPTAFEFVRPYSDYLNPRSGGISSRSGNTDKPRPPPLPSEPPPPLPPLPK
Chain of CDK9/cyclin T1 (P50750 whole entry): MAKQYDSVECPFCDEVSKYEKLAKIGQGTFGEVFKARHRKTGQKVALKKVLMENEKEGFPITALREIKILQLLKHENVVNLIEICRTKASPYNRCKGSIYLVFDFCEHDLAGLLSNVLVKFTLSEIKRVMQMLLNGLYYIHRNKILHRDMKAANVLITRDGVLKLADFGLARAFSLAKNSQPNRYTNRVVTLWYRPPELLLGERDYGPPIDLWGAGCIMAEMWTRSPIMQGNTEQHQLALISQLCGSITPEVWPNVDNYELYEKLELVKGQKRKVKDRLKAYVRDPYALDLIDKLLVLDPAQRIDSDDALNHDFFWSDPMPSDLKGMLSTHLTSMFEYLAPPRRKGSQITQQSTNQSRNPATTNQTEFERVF
Test [13] has as its target CDK12/Cyclin K (Homo sapiens, UniProt Q9NYV4). Description: Inhibition of GST-tagged human CDK12/Cyclin K expressed in Sf9 cells using RBER-IRStide peptide as substrate in presence of ATP and [gamma33-P] ATP by radioisotope filter binding assay.
Test [14] addresses Cyclin-dependent kinase 13/Cyclin-K (Homo sapiens, UniProt Q14004). Put plainly: Inhibition of GST-tagged human CDK13/Cyclin K expressed in Sf9 cells using RBER-IRStide peptide as substrate in presence of ATP and [gamma33-P] ATP by radioisotope filter binding assay.
Test [15] deals with MINO. Put plainly: Downregulation of cyclin K levels in human MINO cells up to 5 uM incubated for 2 hrs by immunoblotting analysis. Type of test: functional, cell-based.
Test [16] addresses Cyclin-dependent kinase 2/cyclin E1 (Homo sapiens, UniProt P24941). Put plainly: Inhibition of His-tagged CDK2/cyclin E1 (unknown origin) expressed in Sf9 cells using histone H1 as substrate in presence of ATP and [gamma33-P]ATP by radioisotope filter binding assay. Type of test: cell-based.

Chain of CDK12/Cyclin K (O75909 whole entry): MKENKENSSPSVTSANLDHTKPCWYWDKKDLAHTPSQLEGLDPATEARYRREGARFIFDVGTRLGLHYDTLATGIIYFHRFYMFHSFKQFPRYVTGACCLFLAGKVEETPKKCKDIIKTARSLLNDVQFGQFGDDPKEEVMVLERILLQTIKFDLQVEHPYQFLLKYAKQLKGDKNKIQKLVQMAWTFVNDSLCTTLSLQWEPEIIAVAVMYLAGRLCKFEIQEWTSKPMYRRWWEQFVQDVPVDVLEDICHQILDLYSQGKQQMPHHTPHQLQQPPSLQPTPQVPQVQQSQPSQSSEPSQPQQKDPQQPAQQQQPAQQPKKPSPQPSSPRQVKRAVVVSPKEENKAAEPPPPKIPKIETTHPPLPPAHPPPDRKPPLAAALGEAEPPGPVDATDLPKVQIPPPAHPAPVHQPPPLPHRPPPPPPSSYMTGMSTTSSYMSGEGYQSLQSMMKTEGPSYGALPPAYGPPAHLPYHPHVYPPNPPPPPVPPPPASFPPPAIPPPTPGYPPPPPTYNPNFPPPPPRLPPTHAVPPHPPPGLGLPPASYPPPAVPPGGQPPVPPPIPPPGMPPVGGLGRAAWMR
Chain of CDK12/Cyclin K (Q9NYV4 whole entry): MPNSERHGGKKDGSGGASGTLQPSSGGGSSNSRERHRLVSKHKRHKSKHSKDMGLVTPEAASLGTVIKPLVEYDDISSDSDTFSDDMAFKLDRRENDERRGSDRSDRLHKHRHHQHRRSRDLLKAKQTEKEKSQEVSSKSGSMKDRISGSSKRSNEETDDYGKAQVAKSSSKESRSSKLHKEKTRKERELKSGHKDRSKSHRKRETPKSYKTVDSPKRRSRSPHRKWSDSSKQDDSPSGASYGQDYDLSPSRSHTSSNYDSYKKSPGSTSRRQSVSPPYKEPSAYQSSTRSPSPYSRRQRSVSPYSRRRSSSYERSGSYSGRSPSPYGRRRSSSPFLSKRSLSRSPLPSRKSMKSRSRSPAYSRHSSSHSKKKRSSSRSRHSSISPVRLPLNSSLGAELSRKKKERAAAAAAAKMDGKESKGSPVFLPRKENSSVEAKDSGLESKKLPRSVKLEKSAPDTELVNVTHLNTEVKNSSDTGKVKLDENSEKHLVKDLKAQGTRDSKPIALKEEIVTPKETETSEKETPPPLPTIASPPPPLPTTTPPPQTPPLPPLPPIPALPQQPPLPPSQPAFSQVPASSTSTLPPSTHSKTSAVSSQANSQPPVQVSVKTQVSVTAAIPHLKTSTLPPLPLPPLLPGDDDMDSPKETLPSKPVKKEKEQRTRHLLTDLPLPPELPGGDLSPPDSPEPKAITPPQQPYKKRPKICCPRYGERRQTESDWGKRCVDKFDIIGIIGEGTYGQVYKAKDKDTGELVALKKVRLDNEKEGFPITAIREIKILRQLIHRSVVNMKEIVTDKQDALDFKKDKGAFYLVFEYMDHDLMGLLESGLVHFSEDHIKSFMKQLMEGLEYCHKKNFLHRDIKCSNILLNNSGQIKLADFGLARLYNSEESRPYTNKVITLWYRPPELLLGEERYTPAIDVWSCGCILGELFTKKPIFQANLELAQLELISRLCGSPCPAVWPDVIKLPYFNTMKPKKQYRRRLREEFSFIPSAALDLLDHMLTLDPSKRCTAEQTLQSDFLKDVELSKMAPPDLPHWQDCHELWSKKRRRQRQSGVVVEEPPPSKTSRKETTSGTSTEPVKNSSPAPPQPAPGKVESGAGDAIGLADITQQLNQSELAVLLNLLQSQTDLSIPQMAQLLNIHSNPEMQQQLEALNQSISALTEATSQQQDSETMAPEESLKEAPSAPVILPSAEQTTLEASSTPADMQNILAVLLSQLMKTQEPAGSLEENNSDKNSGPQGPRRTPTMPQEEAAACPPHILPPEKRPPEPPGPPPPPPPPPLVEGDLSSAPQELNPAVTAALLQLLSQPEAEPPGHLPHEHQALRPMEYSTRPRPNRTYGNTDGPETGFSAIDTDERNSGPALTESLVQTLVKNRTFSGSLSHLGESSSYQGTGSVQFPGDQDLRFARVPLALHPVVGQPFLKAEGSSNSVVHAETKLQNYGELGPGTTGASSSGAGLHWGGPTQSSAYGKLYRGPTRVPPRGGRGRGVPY
Chain of Cyclin-dependent kinase 13/Cyclin-K (Q14004 whole entry): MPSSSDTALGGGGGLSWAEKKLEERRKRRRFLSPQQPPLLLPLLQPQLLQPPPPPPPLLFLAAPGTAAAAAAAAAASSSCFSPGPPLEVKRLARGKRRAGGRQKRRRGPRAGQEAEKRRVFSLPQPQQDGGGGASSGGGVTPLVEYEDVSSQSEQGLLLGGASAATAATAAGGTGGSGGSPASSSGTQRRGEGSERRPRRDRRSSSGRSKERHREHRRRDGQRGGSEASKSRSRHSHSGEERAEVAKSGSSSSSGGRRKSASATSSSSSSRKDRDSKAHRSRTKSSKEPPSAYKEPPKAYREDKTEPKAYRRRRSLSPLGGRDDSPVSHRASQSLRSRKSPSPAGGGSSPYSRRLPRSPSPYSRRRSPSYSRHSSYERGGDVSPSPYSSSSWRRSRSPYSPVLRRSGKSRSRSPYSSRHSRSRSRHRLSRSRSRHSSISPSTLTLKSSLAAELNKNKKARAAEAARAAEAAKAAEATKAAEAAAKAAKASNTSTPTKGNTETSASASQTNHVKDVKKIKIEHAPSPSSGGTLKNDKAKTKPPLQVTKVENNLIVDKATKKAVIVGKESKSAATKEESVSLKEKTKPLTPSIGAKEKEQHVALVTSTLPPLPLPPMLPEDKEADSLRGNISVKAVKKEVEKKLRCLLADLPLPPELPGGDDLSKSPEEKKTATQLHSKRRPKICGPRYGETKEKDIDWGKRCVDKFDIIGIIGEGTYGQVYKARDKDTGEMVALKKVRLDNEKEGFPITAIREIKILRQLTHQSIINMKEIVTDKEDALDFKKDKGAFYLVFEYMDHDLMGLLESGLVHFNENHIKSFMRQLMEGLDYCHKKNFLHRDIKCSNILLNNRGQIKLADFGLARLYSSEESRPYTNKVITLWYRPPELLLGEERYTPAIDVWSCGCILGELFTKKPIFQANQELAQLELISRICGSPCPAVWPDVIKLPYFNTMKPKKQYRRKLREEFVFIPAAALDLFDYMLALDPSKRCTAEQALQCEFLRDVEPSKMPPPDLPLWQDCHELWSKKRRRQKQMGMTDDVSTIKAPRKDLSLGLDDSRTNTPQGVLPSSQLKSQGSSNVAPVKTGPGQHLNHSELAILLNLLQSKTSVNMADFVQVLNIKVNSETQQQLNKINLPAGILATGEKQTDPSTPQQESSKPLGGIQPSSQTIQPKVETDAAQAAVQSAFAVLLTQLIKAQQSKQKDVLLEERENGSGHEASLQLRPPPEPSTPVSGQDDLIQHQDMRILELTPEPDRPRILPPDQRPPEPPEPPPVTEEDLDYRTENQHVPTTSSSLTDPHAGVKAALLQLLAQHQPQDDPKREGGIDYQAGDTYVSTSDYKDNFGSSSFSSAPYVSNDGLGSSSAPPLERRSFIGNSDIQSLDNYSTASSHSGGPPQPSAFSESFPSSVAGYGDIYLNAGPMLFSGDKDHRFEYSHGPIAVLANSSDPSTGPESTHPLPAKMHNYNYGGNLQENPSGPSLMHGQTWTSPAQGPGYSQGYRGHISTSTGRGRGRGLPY
Chain of Cyclin-dependent kinase 13/Cyclin-K (O75909 whole entry, further chain): as the sequence (O75909 whole entry) above

In the case of `CC(C)c1n[nH]c2c(NCc3ccc(-c4cnccn4)cc3)nc(SCCN)nc12`, the GI50 in [1] stood at 22 nM; in [2] it was 69 nM; in [3] it was 54 nM; in test [4] it was 75 nM; in test [5] it was 33 nM; in test [6], 445 nM. Further, the GI50 in [7] stood at 93 nM; in test [8], 62 nM; in test [9], 54 nM. In addition, the IC50 in test [10] is above 1000 nM; in test [11], 157 nM; in test [12], 23 nM; in test [13], 50 nM; in test [14], 22 nM.
In the case of `CCc1cnn2c(NCc3ccc[n+]([O-])c3)cc(N3CCCC[C@H]3CCO)nc12` [DINACICLIB], the GI50 in [1] worked out at 21 nM; in test [2], 22 nM; in test [3], 10 nM; in test [4], 14 nM; in test [5], 10 nM; in test [6], 20 nM. In addition, the GI50 in test [7] was determined as 11 nM; in test [8] it was 9 nM; in test [9], 15 nM. Also, the IC50 in test [11] amounted to 13 nM; in test [14], 21 nM. Moreover, in test [15], the result was Active.
Regarding `CC(C)c1n[nH]c2c(NCc3ccc(-c4cnccn4)cc3)nc(S)nc12`, the GI50 in test [1] is 8900 nM; in test [2] it was at least 10000 nM. Besides, the IC50 in test [16] was found to be 978 nM.
For `CC(C)c1[nH]nc2c(NCc3ccc(-n4cccn4)cc3)nc(SCCN)nc12`, the GI50 in test [1] was determined as 1 nM; in test [2], 4 nM. Also, the IC50 in test [16] was found to be 2 nM.
As for `NCCSc1nc(NCc2ccc(-c3ccccn3)cc2)c2[nH]nc(C3CCC3)c2n1`, the GI50 is 11 nM in test [1]; 19 nM in [2]; 17 nM in [3]; 22 nM in test [4]; 40 nM in test [5]; 350 nM in test [6]. Besides, the concentration for 50% growth inhibition (GI50) in [7] stood at 44 nM; in test [8], 30 nM; in [9] it was 23 nM. Besides, the IC50 in [16] is 5 nM; in test [10], 940 nM; in test [11] it was 24 nM; in test [12], 12 nM; in test [13] it was 29 nM; in test [14] it was 12 nM.
For the compound `NCCSc1nc(NCc2ccc(-c3ccccn3)cc2)c2[nH]nc(C3CCCC3)c2n1`, the GI50 in [1] was determined as 31 nM; in [2] it was 111 nM; in test [3], 200 nM; in test [4], 107 nM; in test [5], 47 nM; in test [6] it was 915 nM. In addition, the GI50 was 265 nM in [7], 180 nM in [8] and 330 nM in test [9]. In addition, the IC50 was 12 nM in test [16]; above 1000 nM in [10]; 127 nM in [11]; 38 nM in test [12]; 304 nM in test [13]; 334 nM in [14].
On to `CC[C@H](CO)Nc1nc(NCc2ccccc2)c2ncn(C(C)C)c2n1` [SELICICLIB], for which the values for the GI50 in test [1] and in test [2] were 1480 nM and 3070 nM, respectively.
On to `OCCSc1nc(NCc2ccc(-c3ccccn3)cc2)c2[nH]nc(C3CCC3)c2n1`, for which the GI50 in [1] was 58 nM; in test [2], 152 nM. For the same compound, in test [16], the IC50 stood at 9 nM.
Regarding `CN(C)C/C=C/C(=O)Nc1ccc(C(=O)N2CCC[C@@H](Nc3ncc(Cl)c(-c4c[nH]c5ccccc45)n3)C2)cc1`, the result in [15] was Active.
In the case of `CC(C)c1[nH]nc2c(NCc3ccc(-n4cccn4)cc3)nc(SCC(C)(C)N)nc12`, the GI50 amounted to 9 nM in test [1] and 14 nM in [2].
In the same order, the values of `CC(C)c1n[nH]c2c(NCc3ccc(-c4cnccn4)cc3)nc(SCCO)nc12` are 16 nM and 56 nM.
Consider `CSc1nc(NCc2ccc(-n3cccn3)cc2)c2n[nH]c(C(C)C)c2n1`, for which the GI50 is 310 nM in test [1] and 810 nM in test [2]. Further, the 50% inhibitory concentration (IC50) in test [16] was 24 nM.
Regarding `CC(C)c1[nH]nc2c(NCc3ccc(-n4cccn4)cc3)nc(SCC(O)CO)nc12` (configuration not stated), the figures for the GI50 in test [1] and in test [2] were 9 nM and 26 nM, respectively. Further, in test [16], the IC50 was 5 nM.
For `CC(C)c1[nH]nc2c(NCc3ccc(-n4cccn4)cc3)nc(S(C)(=O)=O)nc12`, the GI50 in [1] was 30 nM; in test [2], 250 nM. The IC50 in [16] was 53 nM.
The like results for `CC(C)c1[nH]nc2c(NCc3ccc(-n4cccn4)cc3)nc(SCC(N)CN)nc12` (configuration not stated) were, in that order, 410 nM, 580 nM and 19 nM.
As to `CC(C)c1n[nH]c2c(NCc3ccc(-n4ccnc4)cc3)nc(SCCN)nc12`, the GI50 in test [1] is 927 nM; in [2], 1770 nM; in [3] it was 384 nM; in test [4], 599 nM; in test [5], 170 nM; in test [6], 3560 nM. For the same compound, the results for the GI50 in [7], in [8] and in [9] were 689 nM, 435 nM and 435 nM, respectively. Besides, the concentration for half-maximal inhibition (IC50) in test [16] is 4 nM; in test [10] it was above 1000 nM; in test [11], 54 nM; in test [12], 11 nM; in [13], 73 nM; in test [14], 67 nM.
For the compound `CC(C)c1n[nH]c2c(NCc3ccc(-c4c[nH]cn4)cc3)nc(S)nc12`, the GI50 in test [1] and in [2] was at least 10000 nM throughout. Moreover, in test [16], the IC50 was determined as 464 nM.
Turning to `CC(C)c1[nH]nc2c(NCc3ccc(-n4cccn4)cc3)nc(SCC(O)CN)nc12` (configuration not stated), the concentration for 50% growth inhibition (GI50) is 43 nM in test [1] and 95 nM in [2]. Besides, in [16], the IC50 was 6 nM.
On to `CC(C)c1n[nH]c2c(NCc3ccc(-c4c[nH]cn4)cc3)nc(SCCO)nc12`, for which the GI50 in test [1] turned out to be 490 nM; in [2], 1420 nM.
Take `CCC(O)CSc1nc(NCc2ccc(-n3cccn3)cc2)c2n[nH]c(C(C)C)c2n1` (configuration not stated): the results for the GI50 in [1] and in [2] were 22 nM and 591 nM, respectively. Also, the IC50 in test [16] was found to be 25 nM.
Consider `CC(C)c1[nH]nc2c(NCc3ccc(-n4cccn4)cc3)nc(SCCN(C)C)nc12`, for which the GI50 in test [1] amounted to 18 nM; in [2] it was 84 nM.
On to `CC(C)c1n[nH]c2c(NCc3ccc(-n4ccnc4)cc3)nc(S)nc12`, for which the GI50 in [1] and in test [2] was at least 10000 nM throughout. In addition, in test [16], the IC50 was 2300 nM.
As to `CC(O)CNc1nc(NCc2ccc(-n3cccn3)cc2)c2n[nH]c(C(C)C)c2n1` (configuration not stated), the GI50 is 16 nM in [1] and 42 nM in [2]. For the same compound, the IC50 in [16] amounted to 37 nM.
In the same order, the values of `CC(C)c1[nH]nc2c(NCc3ccc(-n4cccn4)cc3)nc(SCCCN(C)C)nc12` are 17 nM, 39 nM and 75 nM.
For the compound `CC(C)c1[nH]nc2c(NCc3ccc(-n4cccn4)cc3)nc(SCC(C)(C)O)nc12`, the 50% growth inhibitory concentration (GI50) in test [1] was found to be 34 nM; in test [2] it was 87 nM.
For the compound `CC(C)c1[nH]nc2c(NCc3ccc(-n4cccn4)cc3)nc(S)nc12`, the GI50 in test [1] is 5900 nM; in test [2], at least 10000 nM. The IC50 in [16] stood at 256 nM.
In the same order, the values of `CC(C)c1n[nH]c2c(NCc3ccc(-n4ccnc4)cc3)nc(SCCO)nc12` are 1480 nM, 6470 nM and 12 nM.
In the same order, the values of `CC(C)c1[nH]nc2c(NCc3ccc(-n4cccn4)cc3)nc(SCCO)nc12` are 6 nM, 20 nM and 5 nM.
